Laboratory results: patent US20180037568A1, “MODULATORS OF METHYL MODIFYING ENZYMES, COMPOSITIONS AND USES THEREOF” (Constellation Pharmaceuticals, Inc., priority 2015, published 2018)

Molecular target: EZH2 (Homo sapiens, UniProt Q15910)
Test: EZH2 nuc BSA Brij 1.5 (IC50): rPRC2, biotinylated oligonucleosome substrate, 3H SAM FlashPlate
Type: biochemical
Conditions: read-out: EZH2 nuc BSA Brij 1.5 (IC50); 2 nM EZH2, 0.2 μM biotinylated oligonucleosomes, 0.2 μM 3H SAM, 3.6 μM H3K27me3 peptide
In short: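 rPRC2 (2 nM EZH2) with 0.2 μM biotinylated oligonucleosomes, 0.2 μM 3H-SAM and 3.6 μM H3K27me3 peptide in pH 8.5 Tris with Brij-35 and BSA. Compounds, 80–0.16 μM in ten 2-fold steps, pre-incubated 20 min before a 60 min reaction. SAH/EDTA quench, streptavidin FlashPlate capture, scintillation count; IC50 from a 4-parameter fit.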

Chain of EZH2 (Q15910 whole entry): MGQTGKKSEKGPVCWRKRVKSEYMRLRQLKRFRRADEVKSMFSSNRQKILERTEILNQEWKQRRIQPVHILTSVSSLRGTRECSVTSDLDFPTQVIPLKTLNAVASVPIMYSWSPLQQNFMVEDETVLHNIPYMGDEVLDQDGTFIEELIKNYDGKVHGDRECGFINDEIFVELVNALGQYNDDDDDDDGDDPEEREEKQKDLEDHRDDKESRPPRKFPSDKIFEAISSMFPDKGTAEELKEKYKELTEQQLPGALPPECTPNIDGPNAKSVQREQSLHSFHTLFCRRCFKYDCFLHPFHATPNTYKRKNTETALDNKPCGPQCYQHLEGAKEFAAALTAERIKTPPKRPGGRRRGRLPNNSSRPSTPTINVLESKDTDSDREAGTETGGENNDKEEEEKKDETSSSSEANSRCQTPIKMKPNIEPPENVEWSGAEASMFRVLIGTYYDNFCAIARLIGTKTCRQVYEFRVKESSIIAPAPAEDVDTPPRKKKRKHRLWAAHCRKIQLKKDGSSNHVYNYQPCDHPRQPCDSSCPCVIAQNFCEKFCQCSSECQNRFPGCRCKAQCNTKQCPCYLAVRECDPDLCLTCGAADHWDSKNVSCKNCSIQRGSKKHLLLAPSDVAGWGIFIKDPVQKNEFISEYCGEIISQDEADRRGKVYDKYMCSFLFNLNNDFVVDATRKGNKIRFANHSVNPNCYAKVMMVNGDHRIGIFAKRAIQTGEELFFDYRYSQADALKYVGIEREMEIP
Chain of EZH2 (O75530 whole entry partner): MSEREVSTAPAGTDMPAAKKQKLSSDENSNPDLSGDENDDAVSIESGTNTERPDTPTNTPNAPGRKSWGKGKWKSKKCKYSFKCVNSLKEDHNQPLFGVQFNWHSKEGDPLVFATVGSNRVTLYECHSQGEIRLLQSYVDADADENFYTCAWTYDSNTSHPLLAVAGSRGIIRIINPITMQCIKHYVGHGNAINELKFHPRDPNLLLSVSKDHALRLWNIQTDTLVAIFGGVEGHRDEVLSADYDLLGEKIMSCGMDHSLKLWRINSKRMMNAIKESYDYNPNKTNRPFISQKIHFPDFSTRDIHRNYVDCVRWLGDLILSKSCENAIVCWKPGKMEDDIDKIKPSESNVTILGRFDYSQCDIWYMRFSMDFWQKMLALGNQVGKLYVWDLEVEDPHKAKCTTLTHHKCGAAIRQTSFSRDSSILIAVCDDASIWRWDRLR
Chain of EZH2 (Q15022 whole entry partner): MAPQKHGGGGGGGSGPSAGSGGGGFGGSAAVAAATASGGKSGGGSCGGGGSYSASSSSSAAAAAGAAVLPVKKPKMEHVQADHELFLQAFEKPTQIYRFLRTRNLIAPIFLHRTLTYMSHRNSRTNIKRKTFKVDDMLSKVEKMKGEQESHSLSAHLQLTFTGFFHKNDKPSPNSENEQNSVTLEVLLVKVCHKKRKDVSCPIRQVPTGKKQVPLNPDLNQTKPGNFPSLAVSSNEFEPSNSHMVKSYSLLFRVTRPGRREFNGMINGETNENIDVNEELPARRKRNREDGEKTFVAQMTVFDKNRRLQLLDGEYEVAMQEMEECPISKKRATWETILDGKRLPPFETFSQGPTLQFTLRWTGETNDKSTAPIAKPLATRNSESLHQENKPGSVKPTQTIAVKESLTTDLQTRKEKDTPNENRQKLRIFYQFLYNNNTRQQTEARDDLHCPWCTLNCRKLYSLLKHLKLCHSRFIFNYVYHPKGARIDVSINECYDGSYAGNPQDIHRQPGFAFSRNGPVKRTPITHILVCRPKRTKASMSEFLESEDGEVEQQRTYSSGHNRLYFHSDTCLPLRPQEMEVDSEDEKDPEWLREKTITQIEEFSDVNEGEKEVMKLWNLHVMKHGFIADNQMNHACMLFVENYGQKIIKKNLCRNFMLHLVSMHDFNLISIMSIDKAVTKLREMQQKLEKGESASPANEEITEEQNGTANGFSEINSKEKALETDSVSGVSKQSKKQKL

Structure (SMILES): COc1cc(C)[nH]c(=O)c1CNC(=O)c1c(C)n(C(C)C2CCN(C)C(C(F)(F)F)C2)c2ccccc12 (single isomer, unassigned) [Compound 21, N-((4-methoxy-6-methyl-2-oxo-1,2-dihydropyridin-3-yl)methyl)-2-methyl-1-(1-(1-methyl-2-(trifluoromethyl)piperidin-4-yl)ethyl)-1H-indole-3-carboxamide]
- IC50: < 100 nM
